Reference: patent publication US20240391862A1, “(1,4,5-TRISUBSTITUTED-1H-PYRAZOL-3-YL)OXY-2-ALKOXY ALKYL ACIDS AND THEIR DERIVATIVES, THEIR SALTS AND THEIR USE AS HERBICIDAL AGENTS” (Bayer AKtiengesellschaft, priority 2021, published 2024)

How the values were obtained:
ZEAMX = test: Post-emergence herbicidal effect and crop plant compatibility, greenhouse pot test; format: in vivo, Zea mays; settings: Zea mays, 504 h, 20 g/ha, one-leaf stage, rated visually after about 3 weeks vs untreated controls, read-out: Post-emergence effect at 20 g/ha against ZEAMX in %
From the text: (§1) • ALOMY: Alopecurus myosuroides SETVI: Setaria viridis • AVEFA: Avena fatua POLCO: Fallopia convolvulus • AMARE: Amaranthus retroflexus ECHCG: Echinochloa crus-galli • LOLRJ: Lolium rigidum STEME: Stellaria media • VERPE: Veronica persica MATIN: Tripleurospermum inodorum • DIGSA: Digitaria sanguinalis ABUTH: Abutylon threophrasti • TRZAS: Triticum aestivum VIOTR: Viola tricolor • BRSNW: Brassica napus ZEAMX: Zea mays • PHBPU: Ipomoea purpurea GLXMA: Glycine max • ORYSA: Oryza sativa HORMU: Hordeum murinum
(§2) Seeds of monocotyledonous and dicotyledonous weeds and crop plants are placed in sandy loam in plastic or organic planting pots, covered with soil and cultivated in a greenhouse under controlled growth conditions. 2 to 3 weeks after sowing, the trial plants are treated at the one-leaf stage. The compounds of the invention, formulated in the form of wettable powders (WP) or as emulsion concentrates (EC), are then sprayed onto the green parts of the plants as aqueous suspension or emulsion with addition of 0.5% additive at a water application rate of 600 l/ha (converted). After the test plants have been kept in the greenhouse under optimum growth conditions for about 3 weeks, the activity of the preparations is rated visually in comparison to untreated controls. For example, 100% activity=the plants have died, 0% activity=like control plants.
(§3) Tables 20a to 38c below show the effects/crop compatibilities of selected compounds of the general formula (I) on various harmful plants at an application rate corresponding to 20 to 320 g/ha, which were obtained by the trial procedure specified above.

ABUTH = test: Post-emergence herbicidal effect, greenhouse pot test; format: in vivo, Abutilon theophrasti; settings: Abutilon theophrasti, 504 h, visual rating about 3 weeks after treatment, read-out: Post-emergence effect against ABUTH
From the text: as §1, §2, §3

ALOMY = test: as above; format: in vivo, Alopecurus myosuroides; settings: Alopecurus myosuroides, 504 h, visual rating about 3 weeks after treatment, read-out: Post-emergence effect against ALOMY
From the text: as §1, §2, §3

AMARE = test: as above; format: in vivo, Amaranthus retroflexus; settings: Amaranthus retroflexus, 504 h, visual rating about 3 weeks after treatment, read-out: Post-emergence effect against AMARE
From the text: as §1, §2, §3

AVEFA = test: as above; format: in vivo, Avena fatua; settings: Avena fatua, 504 h, visual rating about 3 weeks after treatment, read-out: Post-emergence effect against AVEFA
From the text: as §1, §2, §3

DIGSA = test: as above; format: in vivo, Digitaria sanguinalis; settings: Digitaria sanguinalis, 504 h, visual rating about 3 weeks after treatment, read-out: Post-emergence effect against DIGSA
From the text: as §1, §2, §3

ECHCG = test: as above; format: in vivo, Echinochloa crus-galli; settings: Echinochloa crus-galli, 504 h; for pest or weed control at 80 g/ha / pest or weed control at 320 g/ha: read-out: Post-emergence effect against ECHCG in %
From the text: as §1, §2, §3

LOLRI = test: as above; format: in vivo, Lolium rigidum; settings: Lolium rigidum, 504 h, read-out: Post-emergence effect against LOLRI in %
From the text: as §1, §2, §3

MATIN = test: as above; format: in vivo, Tripleurospermum inodorum; settings: Tripleurospermum inodorum, 504 h, read-out: Post-emergence effect against MATIN in %
From the text: as §1, §2, §3

PHBPU = test: as above; format: in vivo, Ipomoea purpurea; settings: Ipomoea purpurea, 504 h, read-out: Post-emergence effect against PHBPU in %
From the text: as §1, §2, §3

SETVI = test: as above; format: in vivo, Setaria viridis; settings: Setaria viridis, 504 h, read-out: Post-emergence effect against SETVI in %
From the text: as §1, §2, §3

VERPE = test: as above; format: in vivo, Veronica persica; settings: Veronica persica, 504 h, read-out: Post-emergence effect against VERPE in %
From the text: as §1, §2, §3

VIOTR = test: as above; format: in vivo, Viola tricolor; settings: Viola tricolor, 504 h, read-out: Post-emergence effect against VIOTR in %
From the text: as §1, §2, §3

POLCO = test: as above; format: in vivo, Fallopia convolvulus; settings: Fallopia convolvulus, 504 h, 320 g/ha, read-out: Post-emergence effect against POLCO in %
From the text: as §1, §2, §3

KCHSC = test: as above; format: in vivo; settings: 504 h, read-out: Post-emergence effect against KCHSC in %
Method: as §2, with “plants. Tables 20a to 38c below show the effects/crop compatibilities of selected compounds of the general formula (I) on various harmful plants at an application rate corresponding to 20 to 320 g/ha, which were obtained by the trial procedure specified above.” for “plants.”

SMILES	pest or weed control at 320 g/ha (ABUTH)	pest or weed control at 320 g/ha (ALOMY)	pest or weed control at 80 g/ha (AVEFA)	pest or weed control at 320 g/ha (AVEFA)	pest or weed control at 320 g/ha (DIGSA)	pest or weed control at 80 g/ha (ECHCG)	pest or weed control at 320 g/ha (ECHCG)	pest or weed control at 80 g/ha (LOLRI)	pest or weed control at 320 g/ha (LOLRI)	pest or weed control at 80 g/ha (MATIN)	pest or weed control at 320 g/ha (MATIN)	pest or weed control at 20 g/ha (PHBPU)	pest or weed control at 80 g/ha (PHBPU)	pest or weed control at 320 g/ha (PHBPU)	pest or weed control at 320 g/ha (SETVI)	pest or weed control at 80 g/ha (VERPE)	pest or weed control at 320 g/ha (VERPE)	pest or weed control at 80 g/ha (VIOTR)	pest or weed control at 320 g/ha (VIOTR)	also measured
COC(=O)C(OC)Oc1nn(-c2ccccc2)c(-c2ccc(F)nc2)c1Cl (stereo not drawn) [Example I-26]	90%	90%	80%	90%	90%	80%	90%	90%	90%	80%	80%	80%	80%	90%	90%	90%	90%	80%	80%	plant injury at 20 g/ha (ZEAMX): 20%; pest or weed control at 80 g/ha (ALOMY; 80 g/ha): 90%; pest or weed control at 20 g/ha (AMARE; 20 g/ha): 80%; pest or weed control at 80 g/ha (AMARE; 80 g/ha): 80%; pest or weed control at 320 g/ha (AMARE; 320 g/ha): 80%; pest or weed control at 80 g/ha (DIGSA; 80 g/ha): 80%; pest or weed control at 20 g/ha (MATIN; 20 g/ha): 80%
COC(=O)C(OC)Oc1nn(-c2ncccc2F)c(-c2cncc(F)c2)c1Br (stereo not drawn) [Example I-91]	80%	80%	90%	90%	90%	80%	90%	90%	90%	80%	80%	80%	80%	80%	80%	80%	80%	80%	80%	pest or weed control at 80 g/ha (ABUTH; 80 g/ha): 80%; pest or weed control at 20 g/ha (ECHCG; 20 g/ha, visual rating about 3 weeks after treatment, read-out: Post-emergence effect against ECHCG): 80%; pest or weed control at 320 g/ha (POLCO): 80%; pest or weed control at 20 g/ha (SETVI; 20 g/ha): 80%; pest or weed control at 80 g/ha (SETVI; 80 g/ha): 80%; pest or weed control at 20 g/ha (VIOTR; 20 g/ha): 80%; pest or weed control at 20 g/ha (KCHSC; 20 g/ha): 80%; pest or weed control at 80 g/ha (KCHSC; 80 g/ha): 80%; pest or weed control at 320 g/ha (KCHSC; 320 g/ha): 90%
